Laboratory results as given in US20110218188A1, “SUBSTITUTED (PYRIDYL)-AZINYLAMINE DERIVATIVES AS FUNGICIDES” (priority 2008, published 2011).
Marks after values point to notes of the source that are not given here.

Assay: Measurement of logP values by HPLC on reversed phase columns (EEC directive 79/831 Annex V.A8)
Assay type: physicochemical

| Compound | logP (pH 2.7) | further results |
| --- | --- | --- |
| CCCCN(CCC)C(=O)c1cc(-c2ncnc(Nc3cccc(Cl)c3)n2)ccn1 [Example B126] | 4.31 | – |
| COC[C@H]1CCCN1C(=O)c1cc(-c2ncnc(Nc3cccc(Cl)c3)n2)ccn1 [Example B134] | 3.08 | – |
| CC(=NNCCC#N)c1cc(-c2ncnc(Nc3cccc(Cl)c3)n2)ccn1 [Example B81, 3-{2-[1-(4-{4-[(3-chlorophenyl)amino]-1,3,5-triazin-2-yl}pyridin-2-yl)ethylidene]hydrazinyl}propanenitrile] | – | chromatographic logP (pH 2.7): 2.5 |
| N#CC1CCN(C(=O)c2cc(-c3ncnc(Nc4cccc(Cl)c4)n3)ccn2)CC1 [Example B170] | 2.59 | – |
| CN(CCC#N)C(=O)c1cc(-c2ncnc(Nc3ccsc3)n2)ccn1 [Example C12] | 1.89 | – |
| CN(C)C(=O)c1cc(-c2ncnc(Nc3cc(F)ccc3F)n2)ccn1 [Example B354] | 2.1 | – |
| Cc1ccc(Nc2ncnc(-c3ccnc(C(=O)NCCCN4CCCCCC4=O)c3)n2)cc1Cl [B228] | 3.44 | – |
| CCCCN(C)C(=O)c1cc(-c2ncnc(Nc3cccc(Cl)c3)n2)ccn1 [Example B123] | 3.48 | – |
| CN(CCC#N)C(=O)c1cc(-c2ncnc(Nc3ccccc3)n2)ccn1 [Example B310] | 2.07 | – |
| O=C(NO)c1cc(-c2ncnc(Nc3cccc(Cl)c3)n2)ccn1 [Example B185, 4-{4-[(3-chlorophenyl)amino]-1,3,5-triazin-2-yl}-N-hydroxypyridine-2-carboxamide] | – | chromatographic logP (pH 2.7): 2.13 |
| CCN(C)C(=O)c1cc(-c2ncnc(Nc3cccc(OC)c3)n2)ccn1 [Example B278] | 2.26 | – |
| CCN(C)C(=S)c1cc(-c2ncnc(N(C(C)=O)c3cccc(F)c3)n2)ccn1 [Example B339] | 2.73 | – |
| O=C(NC1CCC1)c1cc(-c2ncnc(Nc3ccc(F)c(Cl)c3)n2)ccn1 [B199] | 3.94 | – |
| COc1ccc(CON=C(C)c2cc(-c3ncnc(Nc4cccc(Cl)c4)n3)ccn2)cc1 (mixture of isomers) [B60] | 4.96 | – |
| COCC(C)NC(=O)c1cc(-c2ncnc(Nc3ccc(C)c(Cl)c3)n2)ccn1 (stereo not shown) [Example B225] | 3.8 | – |
| O=C1CN(C(=O)c2cc(-c3ncnc(Nc4cccc(Cl)c4)n3)ccn2)CN1 [B168] | 2.15 | – |
| CN(CC1CC1)C(=O)c1cc(-c2ncnc(Nc3ccc(F)cc3)n2)ccn1 [Example B17] | 2.73 | – |
| Cc1ccc(Nc2ncnc(-c3ccnc(C(=O)N4CCCC4)c3)n2)cc1Cl [B224] | 3.26 | – |
| CCN1CCCC(NC(=O)c2cc(-c3ncnc(Nc4cccc(Cl)c4)n3)ccn2)C1 (stereo not shown) [B122] | 1.82 | – |
| O=C(c1cc(Nc2nccc(-c3ccnc(C(=O)N4CCCC4)c3)n2)ccn1)N1CCCC1 [Example A8] | 1.37 | – |

| Compound | logP (pH 2.7) | further results |
| --- | --- | --- |
| CCOC(=N)c1cc(-c2ncnc(Nc3cccc(Cl)c3)n2)ccn1 [Example B102, ethyl 4-{4-[(3-chlorophenyl)amino]-1,3,5-triazin-2-yl}pyridine-2-carboximidoate] | – | chromatographic logP (pH 2.7): 2.08 |
| CCN(C)C(=S)c1cc(-c2ncnc(N(C(=O)COC)c3cccc(F)c3)n2)ccn1 [Example B338] | 2.62 | – |
| C=CCN(CC=C)C(=O)c1cc(-c2ncnc(Nc3ccc(OC)nc3)n2)ccn1 [Example C7] | – | logP (pH 7.8): 2.58^[c] |
| CCN(C)C(=O)c1cccc(-c2ccnc(Nc3ccnc(Cl)c3)n2)n1 [Example A36] | – | logP (pH 2.3): 2.25^[b] |
| C#CCN(c1cccc(Cl)c1)c1ncnc(-c2ccnc(C(=O)N(C)CCC#N)c2)n1 [B403] | 2.77 | – |
| CN(CCC#N)C(=O)c1cc(-c2ncnc(Nc3cc(F)ccc3F)n2)ccn1 [Example B237] | 2.1 | – |
| O=C(O)c1cc(-c2ncnc(Nc3ccsc3)n2)ccn1 [Example C28, 4-[4-(3-thienylamino)-1,3,5-triazin-2-yl]pyridine-2-carboxylic acid] | – | chromatographic logP (pH 2.7): 1.62 |
| O=C(c1cc(Nc2nccc(-c3ccnc(C(=O)N4CCOCC4)c3)n2)ccn1)N1CCOCC1 [Example A23] | 0.92 | – |
| CN(CCC#N)C(=O)c1cc(-c2ncnc(Nc3cccc(F)c3)n2)ccn1 [Example B1] | 2.22 | – |
| COCC(=O)ON=C(N)c1cc(-c2ncnc(Nc3cccc(Cl)c3)n2)ccn1 [Example B104, 4-{4-[(3-chlorophenyl)amino]-1,3,5-triazin-2-yl}-N′-[(methoxyacetyl)oxy]pyridine-2-carboximidamide] | – | chromatographic logP (pH 2.7): 2.92 |
| COc1ccc(Nc2ncnc(-c3ccnc(C(=O)N(C)C)c3)n2)cn1 [Example C8] | 1.57 | – |
| CCN(CC)C(=O)c1cc(-c2ncnc(Nc3cccc(COC)c3)n2)ccn1 [Example B240] | 2.48 | – |
| O=C(c1cc(-c2ncnc(Nc3cccc(Cl)c3)n2)ccn1)N1CCCCC1CO (stereo not shown) [Example B165] | 2.48 | – |
| CCC(=NOCc1ccc(OC)cc1)c1cc(-c2ncnc(Nc3cccc(Cl)c3)n2)ccn1 (mixture of isomers) [B68] | 5.46 | – |
| COCC(=O)N(c1ccccc1)c1ncnc(-c2ccnc(C(=O)N(C)CC3CC3)c2)n1 [Example B401] | 2.37 | – |
| O=C(c1cc(-c2ncnc(Nc3cccc(Cl)c3)n2)ccn1)N1CCSCC1 [B176] | 2.98 | – |
| NC(=O)c1cc(-c2ncnc(Nc3cccc(C(F)F)c3)n2)ccn1 [B405] | – | logP (pH 7.8): 2.04^[c] |
| CCC(=NOCc1ccc(Cl)cc1)c1cc(-c2ncnc(Nc3cccc(Cl)c3)n2)ccn1 (mixture of isomers) [B70] | 6.22 | – |
| C=CCN(C)C(=O)c1cc(-c2ncnc(Nc3cccc(Cl)c3)n2)ccn1 [Example B127] | 2.96 | – |

Continued, in another order:

| logP (pH 2.7) | Compound | further results |
| --- | --- | --- |
| 2.55 | CCN(CC)C(=O)c1cc(-c2ncnc(Nc3ccccc3)n2)ccn1 [Example B311] | – |
| 1.82 | CCN(C)C(=O)c1cc(-c2ncnc(Nc3ccc(OC)nc3)n2)ccn1 [Example C10] | – |
| 1.69 | O=C(c1cc(-c2ccnc(Nc3ccnc(Cl)c3)n2)ccn1)N1CCOCC1 [Example A22] | – |
| 2.08 | CC(=O)Nc1cccc(Nc2ncnc(-c3ccnc(C(=O)N(C)CCC#N)c3)n2)c1 [B304] | – |
| 3.8 | CCCC(=O)O/N=C(/N)c1cc(-c2ncnc(Nc3cccc(Cl)c3)n2)ccn1 [B106] | – |
| 2.47 | CCC(C)N(C)C(=O)c1cc(-c2ccnc(Nc3ccnc(Cl)c3)n2)ccn1 (stereo not shown) [Example A29] | – |
| 3.8 | CCC(COC)NC(=O)c1cc(-c2ncnc(Nc3cccc(Cl)c3)n2)ccn1 (stereo not shown) [B89] | – |
| 4.3 | CC(C)CCNC(=O)c1cc(-c2ncnc(Nc3cccc(Cl)c3)n2)ccn1 [B61] | – |
| 3.78 | CCN(CC)C(=S)c1cc(-c2ncnc(Nc3cccc(C(F)(F)F)c3)n2)ccn1 [Example B326] | – |
| 3.73 | O=C(NCCC(F)(F)F)c1cc(-c2ncnc(Nc3cccc(Cl)c3)n2)ccn1 [B121] | – |
| 3.39 | CC1CCCCN1C(=O)c1cc(-c2ncnc(Nc3cccc(Cl)c3)n2)ccn1 (stereo not shown) [Example B142] | – |
| 2.08 | O=C(c1cc(-c2ccnc(Nc3ccnc(Cl)c3)n2)ccn1)N1CCCC1 [Example A7] | – |
| 3.06 | CCN(C)C(=O)c1cc(-c2ncnc(Nc3cccc(S(F)(F)(F)(F)F)c3)n2)ccn1 [Example B252] | – |
| 2.57 | CCN(C)C(=O)c1cc(-c2ncnc(Nc3cccc(OC(F)F)c3)n2)ccn1 [B409] | – |
| 4.13 | CCCN(C(=O)c1cc(-c2ncnc(Nc3cccc(Cl)c3)n2)ccn1)C(C)CC (stereo not shown) [Example B171] | – |
| 2.95 | CC(=O)O/N=C(/N)c1cc(-c2ncnc(Nc3cccc(Cl)c3)n2)ccn1 [B109] | – |
| 2.33 | O=C(NCCCN1CCCCCC1=O)c1cc(-c2ccnc(Nc3ccnc(Cl)c3)n2)ccn1 [Example A20] | – |
| 2.2 | CCCN(C)C(=O)c1cc(-c2ccnc(Nc3ccnc(Cl)c3)n2)ccn1 [Example A13] | – |
| 4.73 | C#CCON=C(CC)c1cc(-c2ncnc(Nc3cccc(Cl)c3)n2)ccn1 (mixture of isomers) [B80] | – |
| 3.67 | CC(C)=CCN(C)C(=O)c1cc(-c2ncnc(Nc3cccc(Cl)c3)n2)ccn1 [Example B148] | – |

| logP (pH 2.7) | Compound | further results |
| --- | --- | --- |
| 2.8 | Cc1ccc(Nc2ncnc(-c3ccnc(C(=O)N(C)CCC#N)c3)n2)cc1Cl [Example B366] | – |
| 5.63 | CC(=NOCC(C)C)c1cc(-c2ncnc(Nc3cccc(Cl)c3)n2)ccn1 (mixture of isomers) [B44] | – |
| 2.86 | COC(=O)NN=C(C)c1cc(-c2ncnc(Nc3cccc(Cl)c3)n2)ccn1 [B83] | – |
| 2.88 | CCN(C)C(=O)c1cc(-c2ncnc(Nc3ccc(Cl)c(C(F)F)c3)n2)ccn1 [Example B386] | – |
| 3.05 | O=C(NC1CC1)c1cc(-c2ncnc(Nc3cccc(Cl)c3)n2)ccn1 [Example B57] | – |
| 3.55 | CCNC(=O)c1cc(-c2ncnc(Nc3ccc(C)c(Cl)c3)n2)ccn1 [B231] | – |
| 2.86 | CCCN(C)C(=O)c1cc(-c2ncnc(Nc3ccc(F)c(F)c3)n2)ccn1 [Example B379] | – |
| 3.33 | CCN(C)C(=S)c1cc(-c2ncnc(Nc3ccc(F)c(Cl)c3)n2)ccn1 [Example B209] | – |
| 3.46 | CC(C)CN(C)C(=O)c1cc(-c2ncnc(Nc3ccc(F)c(Cl)c3)n2)ccn1 [Example B206] | – |
| 2.17 | CCN(CC)C(=O)c1cc(-c2ccnc(Nc3ccnc(Cl)c3)n2)ccn1 [Example A27] | – |
| 5.1 | CCON=C(CC)c1cc(-c2ncnc(Nc3cccc(Cl)c3)n2)ccn1 (mixture of isomers) [Example B40] | – |
| 2.92 | COCCNC(=O)c1cc(-c2ncnc(Nc3cccc(SC)c3)n2)ccn1 [B214] | – |
| 2.37 | CN(CCC#N)C(=O)c1cc(-c2ncnc(Nc3cccc(OC(F)F)c3)n2)ccn1 [Example B297] | – |
| 3.25 | CCCN(C)C(=O)c1cc(-c2ncnc(Nc3cccc(C(F)(F)F)c3)n2)ccn1 [Example B356] | – |
| 2.84 | COCCNC(=O)c1cc(-c2ncnc(Nc3cccc(Cl)c3)n2)ccn1 [B59] | – |
| 2.44 | CCN(C)C(=O)c1cc(-c2ncnc(Nc3cccc(C(F)F)c3)n2)ccn1 [Example B400] | – |
| 4.16 | CCC(C)NC(=O)c1cc(-c2ncnc(Nc3ccc(F)c(Cl)c3)n2)ccn1 (stereo not shown) [Example B197] | – |
| 2.6 | CCN(CC)C(=O)c1cccc(-c2ccnc(Nc3ccnc(Cl)c3)n2)n1 [Example A33] | – |
| 2.28 | CN(CC1CC1)C(=O)c1cc(-c2ccnc(Nc3ccnc(Cl)c3)n2)ccn1 [Example A31] | – |
| 2.8 | CCN(C)C(=S)c1cc(-c2ncnc(Nc3ccc(F)cc3)n2)ccn1 [Example B23] | – |
